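Compound exposure: 48 hours, 5 concentrations, 96-well plates. The concentration for full growth arrest is given as TGI.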
Assays:
Test in all cases: growth of human tumour cells (NCI), 48 h
[1] = system: SF-268 CNS
[2] = system: CCRF-CEM leukemia
[3] = system: HL-60(TB) leukemia
[4] = system: DLD-1 colon
[5] = system: M19-MEL melanoma
[6] = system: LOX IMVI melanoma
[7] = system: LXFL 529 NSCLC
[8] = system: SF-539 CNS
[9] = system: IGROV1 ovarian
[10] = system: UACC-257 melanoma
[11] = system: A549 NSCLC
[12] = system: U251 CNS
[13] = system: OVCAR-4 ovarian
[14] = system: RXF 393 renal
[15] = system: SN12C renal
[16] = system: OVCAR-3 ovarian
[17] = system: NCI-H23 lung
[18] = system: KM12 colon
[19] = system: MOLT-4 leukemia
[20] = system: HCT-15 colon
[21] = system: EKVX NSCLC
[22] = system: CAKI-1 renal
[23] = system: SNB-75 CNS
[24] = system: SF-295 CNS
[25] = system: ACHN renal
[26] = system: SK-OV-3 ovarian
[27] = system: A498 renal
[28] = system: OVCAR-5 ovarian
[29] = system: M14 melanoma
[30] = system: SW-620 colon
[31] = system: COLO 205 colon
[32] = system: RPMI-8226 leukemia
[33] = system: HT29 colon
[34] = system: HOP-92 NSCLC
[35] = system: SK-MEL-28 melanoma
[36] = system: HCT-116 colon
[37] = system: 786-0 renal
[38] = system: DMS 273 small cell lung
[39] = system: DMS 114 small cell lung
[40] = system: OVCAR-8 ovarian
[41] = system: TK-10 renal
[42] = system: KM20L2 colon
[43] = system: NCI-H460 lung
[44] = system: SNB-19 CNS
[45] = system: NCI-H226 lung
[46] = system: UACC-62 melanoma
[47] = system: NCI-H522 lung
[48] = system: MALME-3M melanoma
[49] = system: SK-MEL-5 melanoma
[50] = system: HOP-62 NSCLC
[51] = system: UO-31 renal
[52] = system: SK-MEL-2 melanoma
[53] = system: HCC-2998 colon
[54] = system: K-562 leukemia
[55] = system: XF 498 CNS
[56] = system: SR leukemia
[57] = system: HOP-18 NSCLC
[58] = system: SNB-78 CNS

Measured: TGI

COc1ccc(/C=N/NC(=O)CSc2nc(-c3ccccc3)c(-c3ccccc3)[nH]2)cc1OC
80.4 µM: [45]
42.3 µM: [3]
49.2 µM: [31]
83.9 µM: [20]
69.7 µM: [51]
36.3 µM: [40]
33.8 µM: [29]
64 µM: [28]
35.8 µM: [48]
39.1 µM: [52]
72.9 µM: [22]
55.1 µM: [7]
55.9 µM: [24]
72.5 µM: [21] | [50]
94.4 µM: [15]
84.6 µM: [34]
31.3 µM: [49]
70 µM: [27]
37.6 µM: [19]
39.7 µM: [16]
41.6 µM: [42]
40.5 µM: [46]
89.8 µM: [35]
55.5 µM: [9]
35.3 µM: [5]
40.7 µM: [38]
39.9 µM: [47]
76.7 µM: [17]
81 µM: [37]
63.3 µM: [26]
60.3 µM: [33]
44.8 µM: [6]
52.7 µM: [14]
45.6 µM: [8]
77.2 µM: [25]
> 100 µM: [1] | [2] | [4] | [11] | [30] | [39] | [41] | [44]
34 µM: [18]
87.4 µM: [13]
77 µM: [23]
91.6 µM: [43]
57.8 µM: [12]
57.3 µM: [10]
87.2 µM: [36]
51.8 µM: [32]

N#CC(C(=S)Nc1ccccc1)=C1Nc2ccccc2N1
> 10 µM: [1] | [2] | [3] | [4] | [5] | [6] | [7] | [8] | [10] | [11] | [12] | [13] | [15] | [16] | [17] | [18] | [19] | [20] | [53] | [21] | [22] | [23] | [25] | [54] | [26] | [27] | [28] | [29] | [30] | [31] | [55] | [32] | [56] | [34] | [35] | [36] | [37] | [38] | [39] | [40] | [41] | [42] | [57] | [43] | [44] | [45] | [46] | [47] | [48] | [49] | [50] | [51] | [52]

CC(C)C(=O)CC(c1ccc(Br)cc1)N1N=C(C(C)C)CC1c1ccc(Br)cc1 (centres undefined)
59 µM: [55]
> 100 µM: [1] | [2] | [5] | [6] | [7] | [8] | [11] | [12] | [13] | [14] | [15] | [16] | [17] | [18] | [19] | [20] | [53] | [21] | [22] | [25] | [54] | [26] | [28] | [29] | [30] | [31] | [56] | [33] | [34] | [35] | [36] | [38] | [39] | [40] | [41] | [42] | [57] | [43] | [44] | [45] | [47] | [48] | [50] | [51] | [52]

NC(CCSCCF)C(=O)O (centres undefined)
> 100 µM: [1] | [2] | [3] | [5] | [6] | [7] | [8] | [9] | [11] | [12] | [13] | [58] | [15] | [16] | [17] | [18] | [19] | [20] | [21] | [22] | [25] | [54] | [26] | [27] | [28] | [29] | [30] | [31] | [32] | [56] | [33] | [34] | [35] | [36] | [37] | [38] | [39] | [41] | [42] | [57] | [43] | [44] | [45] | [46] | [47] | [50] | [51] | [52]

Source: PubChem BioAssay (NCI)
